{"source": "patent US20110312968A1", "about": "“METHOD FOR OPTIMIZING THE TREATMENT OF CHRONIC MYELOID LEUKEMIA WITH ABL TYROSINE KINASE INHIBITORS” (priority 2008, published 2011)", "key": {"[1]": {"system": "Shp1 expression in KCL22r cells", "assay": "5-Azacytidine treatment of Ima-resistant KCL22r cells: Shp1 expression", "format": "cell-based", "conditions": "Ima-resistant KCL22r cell line; along with demethylation of the SHP1 promoter region", "from_the_text": "(§1) In this study, we have first used, as model system, a couple of Ima-sensitive (KCL22s) and Ima-resistant (KCL22r) KCL22 cell lines. In these cells, Ima resistance is independent by the oncogenic Bcr/Abl activity. We have found a very low level of Shp1 (both mRNA and protein), a protein with a tumour suppressor activity, in the KCL22r resistant cells, when compared to KCL22s sensitive cells. […] Gain-of-function mutations have been described in various hemopoietic neoplasias including Juvenile Chronic Myelomonocytic Leukemia. In Ph+ cells, oncogenic Bcr/Abl protein activates Shp2 through Gab2, an adaptor protein that, once phosphorylated is able to bind SH2 domain of Shp2. Through complex interactions that may involve the two carboxy-terminal tyrosine residues (542 and 580) Shp2 is also a signal transducer of growth factor receptor. We hypothesized that, Shp1, through dephosphorylation, might modulate the activity of Shp2 and constitute an important mechanism of Ima resistance. […] The data on primary cells support the role of Shp1 in Ima resistance in patients."}, "KCL22r cells": {"system": "KCL22r cells", "assay": "5-Azacytidine treatment of Ima-resistant KCL22r cells: Ima sensitivity (Ima growth inhibition)", "format": "cell-based", "conditions": "Ima-resistant KCL22r cell line after 5-AC treatment", "from_the_text": "as §1"}}, "data": [{"smiles": "Nc1ncn([C@@H]2O[C@H](CO)[C@@H](O)[C@H]2O)c(=O)n1", "note": "[5-Azacytidine]", "values": [{"measurement": "expression of Shp1", "setting": "[1]", "value": "re-induced expression of Shp1"}, {"measurement": "Ima sensitivity, i.e. Ima growth inhibition", "setting": "KCL22r cells", "value": "re-established the Ima sensitivity"}]}]}
